Laboratory results: patent publication US20260262643A1, “HERBICIDAL BENZOXAZINES” (FMC CORPORATION, priority 2022, published 2026)

Legend:
barnyardgrass [1] = test: Test C preemergence; assay type: in vivo, Echinochloa crusgalli; details: Preemergence, 1000 g ai/ha; visual rating after 10 days, 0 to 100 scale (0 no effect, 100 complete control)
Method in brief: (§1)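 Seeds in loam–sand blend received preemergence directed soil spray of test chemicals in non-phytotoxic solvent with surfactant; postemergence treatment was applied at one- to two-leaf stage (2–10 cm). After 10 days in greenhouse, injury rated visually versus untreated controls, 0 (no effect) to 100 (complete control).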

blackgrass [2] = test: Test C preemergence; assay type: in vivo, Alopecurus myosuroides; details: Preemergence, 1000 g ai/ha; visual rating after 10 days, 0 to 100 scale (0 no effect, 100 complete control)
Method in brief: as §1

corn [3] = test: Test C preemergence; assay type: in vivo, Zea mays; details: Preemergence, 1000 g ai/ha; visual rating after 10 days, 0 to 100 scale (0 no effect, 100 complete control)
Text: (§2) Seeds of plant species selected from barnyardgrass (Echinochloa crusgalli), blackgrass (Alopecurus myosuroides), corn (Zea mays), foxtail, giant (giant foxtail, Setaria faberi), green foxtail (Setaria viridis), goosegrass (Eleusine indica), kochia (Bassia scoparia), oat, wild (wild oat, Avena fatua), pigweed, palmer (palmer amaranth, palmer pigweed, Amaranthus palmeri), Pigweed, Redroot (redroot pigweed, Amaranthus retroflexus), ragweed (common ragweed, Ambrosia artemisiifolia), ryegrass, Italian ([…] ryegrass, Lolium multiflorum), soybean (Glycine max), and wheat (Triticum aestivum) were planted into a blend of loam soil and sand and treated preemergence with a directed soil spray using test chemicals formulated in a non-phytotoxic solvent mixture which included a surfactant. At the same time, plants selected from these crops and weed species and also galium (catchweed bedstraw, Galium aparine) and horseweed (Erigeron canadensis) were planted in pots containing the same blend of loam soil and sand and treated with postemergence applications of test chemicals formulated in the same manner. Plants ranged in height from 2 to 10 cm and were in the one- to two-leaf stage for the postemergence treatment. Treated plants and untreated controls were maintained in a greenhouse for 10 days, after which time all treated plants were compared to untreated controls and visually evaluated for injury. Plant response ratings, summarized in Table C, are based on a 0 to 100 scale where 0 is no effect and 100 is complete control. A dash (-) response means no test result.

green foxtail [4] = test: Test C preemergence; assay type: in vivo, Setaria viridis; details: Preemergence, 1000 g ai/ha; visual rating after 10 days, 0 to 100 scale (0 no effect, 100 complete control)
Method in brief: as §1

kochia [5] = test: Test C preemergence; assay type: in vivo, Bassia scoparia; details: Preemergence, 1000 g ai/ha; visual rating after 10 days, 0 to 100 scale (0 no effect, 100 complete control)
Method in brief: as §1

pigweed, palmer [6] = test: Test C preemergence; assay type: in vivo, Amaranthus palmeri; details: Preemergence, 1000 g ai/ha; visual rating after 10 days, 0 to 100 scale (0 no effect, 100 complete control)
Method in brief: as §1

ragweed [7] = test: Test C preemergence; assay type: in vivo, Ambrosia artemisiifolia; details: Preemergence, 1000 g ai/ha; visual rating after 10 days, 0 to 100 scale (0 no effect, 100 complete control)
Method in brief: as §1

ryegrass, Italian [8] = test: Test C preemergence; assay type: in vivo, Lolium multiflorum; details: Preemergence, 1000 g ai/ha; visual rating after 10 days, 0 to 100 scale (0 no effect, 100 complete control)
Method in brief: as §1

barnyardgrass [9] = test: Test C postemergence; assay type: in vivo, Echinochloa crusgalli; details: Postemergence, 1000 g ai/ha
Method in brief: as §1

blackgrass [10] = test: Test C postemergence; assay type: in vivo, Alopecurus myosuroides; details: Postemergence, 1000 g ai/ha
Method in brief: as §1

corn [11] = test: Test C postemergence; assay type: in vivo, Zea mays; details: Postemergence, 1000 g ai/ha, 10 days, visual 0 to 100 scale (0 no effect, 100 complete control)
Text: as §2

green foxtail [12] = test: Test C postemergence; assay type: in vivo, Setaria viridis; details: Postemergence, 1000 g ai/ha
Method in brief: as §1

kochia [13] = test: Test C postemergence; assay type: in vivo, Bassia scoparia; details: Postemergence, 1000 g ai/ha
Method in brief: as §1

pigweed, palmer [14] = test: Test C postemergence; assay type: in vivo, Amaranthus palmeri; details: Postemergence, 1000 g ai/ha
Method in brief: as §1

ragweed [15] = test: Test C postemergence; assay type: in vivo, Ambrosia artemisiifolia; details: Postemergence, 1000 g ai/ha
Method in brief: as §1

ryegrass, Italian [16] = test: Test C postemergence; assay type: in vivo, Lolium multiflorum; details: Postemergence, 1000 g ai/ha
Method in brief: as §1

galium = test: Test C postemergence; assay type: in vivo, Galium aparine; details: Postemergence, 1000 g ai/ha
Method in brief: as §1

horseweed = test: Test C postemergence; assay type: in vivo, Erigeron canadensis; details: Postemergence, 1000 g ai/ha
Method in brief: as §1

[17] = 0 to 100 scale, 0 no effect, 100 complete control
[18] = 10 days, visual 0 to 100 scale (0 no effect, 100 complete control)

SMILES	Plant response rating, Barnyardgrass (barnyardgrass [1])	Plant response rating, Blackgrass (blackgrass [2])	Plant response rating, Foxtail, Green (green foxtail [4])	Plant response rating, Kochia (kochia [5])	Plant response rating, Pigweed, Palmer (pigweed, palmer [6])	Plant response rating, Ragweed (ragweed [7])	Plant response rating, Ryegrass, Italian (ryegrass, Italian [8])	Plant response rating, Barnyardgrass (barnyardgrass [9]; [17])	Plant response rating, Blackgrass (blackgrass [10]; [18])	Plant response rating, Foxtail, Green (green foxtail [12]; [18])	Plant response rating, Kochia (kochia [13]; [18])	Plant response rating, Pigweed, Palmer (pigweed, palmer [14]; [18])	Plant response rating, Ragweed (ragweed [15]; [18])	Plant response rating, Ryegrass, Italian (ryegrass, Italian [16]; [18])	Plant response rating, Galium (galium; [18])	Plant response rating, Horseweed (horseweed; [18])	Plant response rating, Barnyardgrass (barnyardgrass [9]; [18])	other results
C[C@H]1CN(C(=O)c2cccc(-c3cnnn3C)c2)c2cccc(Cl)c2O1 [Compound 239]	50	30	100	30	80	0	70	30	10	30	40	70	50	0	70	30		Plant response rating, Corn (corn [3]): 0; Plant response rating, Corn (corn [11]): 0
Cc1ccc(-c2cccc(C(=O)N3C[C@H](C)Oc4c(Cl)cccc43)c2)o1 [Compound 204]	0	0	0	20	10	0	40	0										Plant response rating, Blackgrass (blackgrass [10]; [17]): 0; Plant response rating, Foxtail, Green (green foxtail [12]; [17]): 0; Plant response rating, Kochia (kochia [13]; [17]): 0; Plant response rating, Pigweed, Palmer (pigweed, palmer [14]; [17]): 10; Plant response rating, Ragweed (ragweed [15]; [17]): 20; Plant response rating, Ryegrass, Italian (ryegrass, Italian [16]; [17]): 0; Plant response rating, Galium (galium; [17]): 50; Plant response rating, Horseweed (horseweed; [17]): 0
C[C@H]1CN(C(=O)c2cccc(-c3ccc(Cl)nc3)c2)c2cccc(Cl)c2O1 [Compound 383]	0	0	20	0	10	0	0		10	0	50	50	0	0	0	0	10	
Cc1cccc2c1O[C@@H](C)CN2C(=O)c1cccc(-n2cncc2C#N)c1 [Compound 309]	0	20	90	10	70	0	70		0	10	40	70	30	10	70	30	10	
Cc1cccc2c1O[C@@H](C)CN2C(=O)c1cccc(-n2cnc(Cl)c2)c1 [Compound 304]	60	70	100	10	70	0	90		30	20	40	20	0	0	70	0	10	
Cc1cc(-c2cccc(C(=O)N3C[C@H](C)Oc4c(Cl)cccc43)c2)sn1 [Compound 389]	70	30	100	90	70	20	60		10	70	80	90	30	0	90	0	70	
